Patent US12156879B2, “Combining BACE1 inhibitors with mGluR agonists for Alzheimer's disease therapy” (University of Connecticut, priority 2019, dated 2024)

Assays:
hippocampal LTP = settings: mice treated with the BACE1 inhibitor; cited from earlier work
[1] = system: layer V pyramidal neurons; settings: mice treated with the BACE1 inhibitor; cited from earlier work
[2] = cited from earlier work
WT (BACE1+/+) mice = assay: Fear conditioning studies; format: in vivo; settings: Lanabecestat 0.5 mg/kg or Verubecestat 3 mg/kg, N=10
[3] = system: synaptic proteins PSD95, mGluR2, Synaptophysin in synaptosome fraction; assay: Western analysis of synaptic proteins in synaptosomes from treated animals; format: in vivo, mice; settings: chronic treatment, Lanabecestat 0.5 mg/kg or Verubecestat 3 mg/kg
Method: (§1) C57BL/6 mice of either sex (4-6 months of age; n=6 per group) received vehicle or BACE1 inhibitors, Lanabecestat (AZD3293) solution at 0.25 mg/kg or 0.5 mg/kg) via oral gavage (Eketjall et al., 2016b). For Verubescstat, 3mg/kg dose was used and delivered orally via gavage (Kennedy et al., 2016). Treatment usually last 2-4 months. The mGluR1 positive allosteric modulator Ro0711401 at 10 mg/kg was given as intraperitoneal injections (IP) 1 hour before decapitation for LTP experiments (Notartomaso et al., 2013). For behavioral assays, Ro0711401 was deliver via IP injection at 12-hour intervals for 6-8 weeks. The mGluR1/5 positive allosteric modulator CHPG was mixed in aCSF and used during recording LTP. The drug was applied in a bath during baseline recording for at least for 30 minutes before HFS stimulation was applied and LTP was recorded (Le Duigou and Kullmann, 2011).
Synaptosome isolation was performed using Thermo Scientific Syn-PER Synaptic Protein Extraction Reagent (cat #87793) from whole brain samples. Briefly, mice were sacrificed by live decapitation, and rapidly dissected hippocampi were homogenized in Syn-Per reagent, ˜1 ml/100 mg tissue. Samples were then centrifuged at 1200×g for 10 min. The resulting supernatant was then centrifuged at 15,000×g for 20 min. Pellets (synaptosomes) were resuspended in buffer B ([…] in 6 mm Tris, pH 8.0) with 1% SDS, briefly sonicated, and frozen in −80° C. Total protein extraction was performed according to previously-described procedures (Hu et al., 2007). Brain samples were homogenized in radioimmunoprecipitation assay (RIPA) buffer (50 mM Tris-HCl, pH 7.4, 1% NP-40, 0.25% sodium deoxycholate, 150 mM NaCl, 1 mM EDTA, 1 mM NaF, 1 mM Na3VO4, and a protease inhibitor cocktail [Roche]) and centrifuged at 13,200 rpm for 90 min. Equal amounts of protein were resolved on a NuPAGE Bis-Tris gel (Invitrogen) and transferred onto nitrocellulose membranes (Invitrogen). Subsequently, blots were incubated with primary antibodies 1:1,000 mGluR1 [AB_12551; Cell Signaling]; 1:1,000 PSD-95 [AB_36233; Cell Signaling]; 1:5,000 GluR1 [AB_05-855; Upstate]; 1:1,000 GluR2/3 [AB_07-598; Upstate]; 1:1,000 GluR4 [AB_06-308; Upstate]; 1:1,000 Homer [AB_8231; Cell Signaling]; 1:500 TMEM25 [AB_24361-1-AP; ProteinTech Group]; 1:1,000 Bassoon [AB_141021; Synaptic Systems]; 1:10,000 Actin [AB_A5441; Sigma], overnight at 4° C. After extensive washing, blots were reacted with HRP-conjugated secondary antibodies and visualized using enhanced chemiluminescence (Thermo Scientific).

[4] = system: mice (WT BACE1+/+ or BACE1-null); assay: Y maze spontaneous alternation task; format: in vivo
Description: (§2) Treatment usually last 2-4 months. […] For behavioral assays, Ro0711401 was deliver via IP injection at 12-hour intervals for 6-8 weeks. The mGluR1/5 positive allosteric modulator CHPG was mixed in aCSF and used during recording LTP.
The symmetrical Y maze made of acrylic consists of three arms separated by 120 degrees. Each arm is 40 cm long, 17 cm high, 4 cm wide at the bottom and 13 cm wide at the top. Each mouse was placed in the center of the Y maze and was allowed to explore freely through the maze during a 5 min session. The sequence and total number of arms entered was recorded. Arm entry was considered to be completed when the hind paws of the mouse had been completely placed in the arm. Percentage of alternations is the number of triads containing entries into all three arms divided by the maximum possible alternations (the total number of arms entered minus 2)×100. Statistics were calculated by Student's t tests.

[5] = system: mice (WT BACE1+/+ or BACE1-null); assay: Open field test; format: in vivo
Method: as §2
Each subject was released in the middle of the arena and observed for 10 minutes. Performance in the open field was recorded by a computer-based video tracking system (Any maze™ software, San Diego instruments, USA). Activity measures included distance traveled, percentage of time spent in corners vs. the center of the arena, and speed of movement during active exploration. The number of entries to the central zone of the open field was also recorded. Statistics were calculated by Student's t tests.

[6] = system: Schaffer collateral (SC)-CA1 synapses; assay: LTP recordings on horizontal hippocampal slices (fEPSP amplitude after high-frequency stimulation); format: in vivo, mice
Method: as §1
Acute brain slices were prepared as previously described (Hu et al., 2018). Briefly, the mice were decapitated and the brains were immersed in low-calcium artificial cerebrospinal fluid (aCSF) containing (in mM): 125 NaCl, 2.5 KCl, 10 glucose, 25 NaHCO3, 1.25 NaH2PO4, 0.4 L-ascorbic acid, 3 myo-inositol, 2 Na-pyruvate, 3 MgCl2 and 0.1 CaCl2 continuously bubbled with 95% O2 and 5% CO2 (pH≈7.3). Animals were decapitated with a guillotine and the brain was quickly removed to an ice-cold aCSF chamber with constant bubbling of 95% O2 and 5% CO2. Acute horizontal brain slices containing the hippocampus were obtained using a Campden 7000 smz-2 vibratome from 4-7-month-old mice at 350 μm thick. Slices were immediately transferred to an incubation beaker containing normal aCSF (same as the low-calcium aCSF except that 1 mM MgCl2 and 1, 1.2, or 2 mM CaCl2 were used) at 30° C., continuously bubbled with 95% O2 and 5% CO2. Slices were allowed to recover for 1 hour and then were transferred to an MED-64 recording chamber with the same aCSF solution at ≈30° C., maintained by MED ThermoConnector (Automate Scientific) with continuous aCSF perfusion at 2 ml/min.
LTP recordings on hippocampal slices were performed according to previously-described procedures (Shimono et al., 2002; Baba et al., 2003; Itoh et al., 2005). Upon obtaining horizontal hippocampal slices from the brains of mice, the prepared slices were then placed onto the center of an MED probe (MED-P515A; AutoMate™ Scientific) with continuous perfusion of aCSF and bubbling of 95% O2 and 5% CO2. The device has an array arranged in an 8×8 pattern of 64 planar microelectrodes across a hippocampal slice. Each electrode is 20×20 μm with an interelectrode distance of 150 μm. A MED-A64HE1S head amplifier and a MED-A64MD1 main amplifier, run by Mobius software, were used for data acquisition and analysis. SCs to CA1 synapses were typically analyzed for LTP assays. fEPSPs caused by stimulation were recorded at a 20-kHz sampling rate within the CA1 subregion of the hippocampus. Control fEPSPs were recorded for at least 10 min before the conditioning stimulation, using a response ˜50% of the maximum. After a stable baseline was established, LTP was induced with three trains of 100 Hz for 1 s with an intertrain interval F of 20 s. Field potential amplitudes were then measured. Data are expressed as mean±SEM. Synaptic strength was evaluated by measuring changes in the fEPSP amplitude relative to baseline. Statistics were calculated by Student's t tests.

[7] = 12 months old BACE1+/+ mice, ~50 days
[8] = WT mice, Lanabecestat 0.5 mg/kg or Verubecestat 3 mg/kg for ~2 months (FIG. 6)
[9] = WT mice, Lanabecestat 0.5 mg/kg ~2 months (FIG. 6)

C[C@@]1(c2cc(-c3cncnc3)c(F)cc2F)CCSC(N)=N1 [LY2811376]
hippocampal LTP (hippocampal LTP): impaired | spine formation in layer V pyramidal neurons [1]: reduced

CC#Cc1cncc(-c2ccc3c(c2)[C@@]2(N=C(C)C(N)=N2)[C@]2(CC[C@@H](OC)CC2)C3)c1 [Lanabecestat]
brain penetrability [2]: brain-penetrable | freezing time, contextual phase (WT (BACE1+/+) mice): significant reduction | freezing time, cue phase (WT (BACE1+/+) mice): significant reduction | PSD95 level in synaptosome fraction [3]: significant decrease | Synaptophysin level in synaptosome fraction [3]: significant decrease | mGluR2 level in synaptosome fraction [3]: significant decrease | total entry, BACE1 inhibitor alone [4, 7]: more significant | % of spontaneous alteration, BACE1 inhibitor alone vs mock treatment ([4]; 12 months old BACE1+/+ mice, ~50 days, Verubecestat 3 mg/kg or Lanabecestat 0.5 mg/kg oral, not statistically significant): reduction | number of arm entries [4, 8]: clearly reduced | spontaneous alternations [4, 8]: clearly reduced | distance traveled on the open field, BACE1 inhibitor alone [5, 7]: traveled more distances | speed on the open field, BACE1 inhibitor alone [5, 7]: faster | stay in the corner of the open field area vs mock-treated controls ([5]; BACE1 inhibitor alone, ~50 days): stayed more in the corner | speed [5, 9]: clear increase | total distance covered [5, 9]: clear increase | exploratory behaviors, time in corners vs center ([5]; WT mice, ~2 months treatment (FIG. 6)): less exploratory behaviors | LTP reduction at lower dose ([6]; WT mice, Lanabecestat 0.25 mg/kg, compared with 0.5 mg/kg): significantly weaker LTP reduction | LTP at SC-CA1 synapses ([6]; WT mice, daily oral Verubecestat 3 mg/kg or Lanabecestat 0.5 mg/kg for 2-4 months): strongly suppressed | potentiation at 30 minutes post-stimulation ([6]; slices from 4-6-month-old WT mice, Lanabecestat 0.5 mg/kg or Verubecestat 3 mg/kg, control slices 245.9±0.9864%): 105.6±0.6137%

CC#Cc1cncc(-c2cc(Cl)c(C3(C)CC(=O)N(C)C(=N)N3)s2)c1 (centres unmarked) [SCH1682496]
hippocampal LTP (hippocampal LTP): impaired | spine formation in layer V pyramidal neurons [1]: reduced
